Laboratory results from patent US8252803B2 (Merck Sharp & Dohme Corp., priority 2007, dated 2012).

What follows are compounds tested against T1, γ-secretase, Aβ(1-42) production, SH-SY5Y neuroblastoma cells overexpressing SPA4CT (Homo sapiens, UniProt P49768) (assay: Cell-Based γ-Secretase Assay, Aβ(42) detection). Conditions: overnight incubation, read-out: IC50 values for Aβ(1-42) inhibition.
T1 construct: Human SH-SY5Y neuroblastoma cells overexpressing the direct γ-secretase substrate SPA4CT; endogenous in cells; host or cells: human SH-SY5Y neuroblastoma cells stably overexpressing the substrate SPA4CT, induced with sodium butyrate
Description: Cell-Based γ-Secretase Assay
Human SH-SY5Y neuroblastoma cells overexpressing the direct γ-secretase substrate SPA4CT were induced with sodium butyrate (10 mM) for 4 hours prior to plating. Cells were plated at 35,000 cells/well/100 μl in 96-well plates in phenol red-free MEM/10% FBS, 50 mM HEPES, 1% Glutamine and incubated for 2 hrs at 37° C., 5% CO2.
Compounds for testing were diluted into Me2SO to give a ten point dose-response curve. Typically 10 μl of these diluted compounds in Me2SO were further diluted into 182 μl dilution buffer (phenol red-free MEM/10% FBS, 50 mM HEPES, 1% Glutamine) and 10 μl of each dilution was added to the cells in 96-well plates (yielding a final Me2SO concentration of 0.5%). Appropriate vehicle and inhibitor controls were used to determine the window of the assay.
After incubation overnight at 37° C., 5% CO2, 25 μl and 50 μl media were transferred into a standard Meso avidin-coated 96-well plate for detection of Aβ(40) and Aβ(42) peptides, respectively. 25 μl Meso Assay buffer (PBS, 2% BSA, 0.2% Tween-20) was added to the Aβ(40) wells followed by the addition of 25 μl of the respective antibody premixes to the wells:
Aβ(42) premix: 1 μg/ml ruthenylated G2-11 antibody, 4 μg/ml biotinylated 4G8 antibody diluted in Origen buffer
(Biotinylated 4G8 antibody supplied by Signet Pathology Ltd; G2-10 and G2-11 antibodies supplied by Chemicon)
After overnight incubation of the assay plates on a shaker at 4° C., the Meso Scale Sector 6000 Imager was calibrated according to the manufacturer's instructions. After washing the plates 3 times with 150 μl of PBS per well, 150 μl Meso Scale Discovery read buffer was added to each well and the plates were read on the Sector 6000 Imager according to the manufacturer's instructions.
LD50 and IC50 values for inhibition of Aβ(40) and Aβ(42) were calculated by nonlinear regression fit analysis using the appropriate software (eg. Excel fit). The total signal and the background were defined by the corresponding Me2SO and inhibitor controls.

| SMILES | IC50 |
| --- | --- |
| Cc1ccc(C(C)(C)C)cc1Nc1nc(N2CCC(n3ccnn3)CC2)ncc1F [Example 1, N-(5-tert-butyl-2-methylphenyl)-5-fluoro-2-[4-(1H-1,2,3-triazol-1-yl)piperidin-1-yl]pyrimidin-4-amine] | 3 to 6 µM |
| CCN(CC)c1ccc(Nc2ccnc(N3CCC(n4ccnn4)CC3)n2)c(C)c1 [Example 8, N4,N4-diethyl-2-methyl-N1-{2-[4-(1H-1,2,3-triazol-1-yl)piperidin-1-yl]pyrimidin-4-yl}benzene-1,4-diamine] | 3 to 6 µM |
| Cc1ccc(C(C)(C)C)cc1Nc1nc(N2CCC(n3ccnc3)CC2)ncc1F [Example 17, N-(5-tert-butyl-2-methylphenyl)-5-fluoro-2-[4-(1H-imidazol-1-yl)piperidin-1-yl]pyrimidin-4-amine] | 3 to 6 µM |
| Cc1ccc(C(C)C)cc1Nc1ccnc(N2CCC(n3ccnn3)CC2)n1 [Example 12, N-(5-isopropyl-2-methylphenyl)-2-[4-(1H-1,2,3-triazol-1-yl)piperidin-1-yl]pyrimidin-4-amine] | 3 to 6 µM |
| CCOc1cc(C)c(Nc2nc(N3CCC(n4ccnn4)CC3)ncc2F)cc1C(C)C [Example 21, N-(4-ethoxy-5-isopropyl-2-methylphenyl)-5-fluoro-2-[4-(1H-1,2,3-triazol-1-yl)piperidin-1-yl]pyrimidin-4-amine] | 0.5 to 1.5 µM |
| Cc1ccc(C(C)(C)C)cc1Nc1ccnc(N2CCC(n3ccnn3)CC2)n1 [Example 15, N-(5-tert-butyl-2-methylphenyl)-2-[4-(1H-1,2,3-triazol-1-yl)piperidin-1-yl]pyrimidin-4-amine] | 0.5 to 1.5 µM |
| CCOc1cc(C)c(Nc2ccnc(N3CCC(n4ccnn4)CC3)n2)cc1C(C)C [Example 10, N-(4-ethoxy-5-isopropyl-2-methylphenyl)-2-[4-(1H-1,2,3-triazol-1-yl)piperidin-1-yl]pyrimidin-4-amine] | 0.5 to 1.5 µM |
| CCOc1cc(C)c(Nc2cc(C(=O)OC)nc(N3CCC(n4ccnc4)CC3)n2)cc1C(C)C [Example 24] | < 0.5 µM |
| CCOc1cc(C)c(Nc2nc(N3CCC(n4ccnn4)CC3)ncc2Cl)cc1C(C)C [Example 19, 5-chloro-N-(4-ethoxy-5-isopropyl-2-methylphenyl)-2-[4-(1H-1,2,3-triazol-1-yl)piperidin-1-yl]pyrimidin-4-amine] | 1.5 to 3 µM |

Now from value to compound:

| IC50 | SMILES |
| --- | --- |
| 1.5 to 3 µM | CCOc1cc(C)c(Nc2nc(N3CCC(n4cc(C)nn4)CC3)ncc2Cl)cc1C(C)C [Example 23, 5-chloro-N-(4-ethoxy-5-isopropyl-2-methylphenyl)-2-[4-(4-methyl-1H-1,2,3-triazol-1-yl)piperidin-1-yl]pyrimidin-4-amine] |
| 0.5 to 1.5 µM | CCOc1cc(C)c(Nc2nc(N3CCC(n4ccnc4)CC3)ncc2F)cc1C(C)C [Example 22, N-(4-ethoxy-5-isopropyl-2-methylphenyl)-5-fluoro-2-[4-(1H-imidazol-1-yl)piperidin-1-yl]pyrimidin-4-amine] |
| 3 to 6 µM | Cc1ccc(C(C)(C)C)cc1Nc1cc(S(C)(=O)=O)nc(N2CCC(n3ccnc3)CC2)n1 [Example 18, N-(5-tert-butyl-2-methylphenyl)-2-[4-(1H-imidazol-1-yl)piperidin-1-yl]-6-(methylsulfonyl)pyrimidin-4-amine] |
| < 0.5 µM | CCOc1cc(C)c(Nc2ccnc(N3CCC(n4ccnc4)CC3)n2)cc1C(C)C [Example 11, N-(4-ethoxy-5-isopropyl-2-methylphenyl)-2-[4-(1H-1,2,3-imidazol-1-yl)piperidin-1-yl]pyrimidin-4-amine] |
| 1.5 to 3 µM | CCN(CC)c1ccc(Nc2ccnc(N3CCC(c4nnc(-c5ccccc5)o4)CC3)n2)c(C)c1 [Example 14, N4,N4-diethyl-2-methyl-N1-{2-[4-(5-phenyl-1,3,4-oxadiazol-2-yl)piperidin-1-yl]pyrimidin-4-yl}benzene-1,4-diamine] |
| 3 to 6 µM | CCN(CC)c1ccc(Nc2ccnc(N3CCC4(CCCN4)CC3)n2)c(C)c1 [Example 4, N1-[2-(1,8-diazaspiro[4.5]dec-8-yl)pyrimidin-4-yl]-N4,N4-diethyl-2-methylbenzene-1,4-diamine] |
| 0.5 to 1.5 µM | Cc1ccc(C(C)(C)C)cc1Nc1ccnc(N2CCC(n3ccnc3)CC2)n1 [Example 16, N-(5-tert-butyl-2-methylphenyl)-2-[4-(1H-imidazol-1-yl)piperidin-1-yl]pyrimidin-4-amine] |
| 1.5 to 3 µM | CCOc1cc(C)c(Nc2nc(N3CCC(n4ccnc4)CC3)ncc2Cl)cc1C(C)C [Example 20, 5-chloro-N-(4-ethoxy-5-isopropyl-2-methylphenyl)-2-[4-(1H-imidazol-1-yl)piperidin-1-yl]pyrimidin-4-amine] |
| < 0.5 µM | CCOc1cc(C)c(Nc2cc(CO)nc(N3CCC(n4ccnc4)CC3)n2)cc1C(C)C [Example 25, {6-[(4-ethoxy-5-isopropyl-2-methylphenyl)amino]-2-[4-(1H-imidazol-1-yl)piperidin-1-yl]pyrimidin-4-yl}methanol] |
| 3 to 6 µM | CCN(CC)c1ccc(Nc2ccnc(N3CCC(n4ccnc4)CC3)n2)c(C)c1 [Example 7, N4,N4-diethyl-N1-{2-[4-(1H-imidazol-1-yl)piperidin-1-yl]pyrimidin-4-yl}-2-methylbenzene-1,4-diamine] |
